According to patent US20070282004A1, “Use of a Cyclopentenone Prostaglandin for Delaying for the Onset and/or Preventing the Continuation of Labour” (Imperial College Innovations Limited, priority 2003, published 2007):

Key:
NF-κB = biological target: T1, NF-κB (Homo sapiens, UniProt P19838+Q04206); assay: EMSA of NF-κB DNA binding in nuclear extracts of treated amnion cells; assay type: cell-based; settings: L− and L+ amnion cells, treated 2 h, then IL-1β 15 min
T1 construct: nuclear protein extracts from myometrial cells; endogenous in cells; host or cells: primary human myometrial cells (term, passage 1-4)
Procedure: Placentae were obtained from patients at term either at elective Caesarean section prior to labour (L−) or following spontaneous labour onset and vaginal delivery (L+). Amnion cells were prepared as described in Bennett et al., (1989). Briefly, the amnion was separated from the placenta, washed 3× in PBS, cut into strips, and incubated in 0.5 mM EDTA in PBS for 15 min. The strips were washed in PBS 2× and digested with 2.5 mg/ml dispase in serum-free DMEM for 35 min at 37° C. The amnion was then shaken vigorously in DMEM, 10% FCS to dissociate the cells, the remaining strips discarded, and the cell suspension pelleted at 175 g for 10 min and cultured in DMEM, 10% FCS (Sigma), 1% L-glutamine, 1% penicillin-streptomycin.
Nuclear and cytosolic protein extracts were obtained from cultured amnion cells as described by Schreiber et al (1989). For nuclear/cytosolic fractionation, confluent cell monolayers were scraped and lysed using a buffer containing 10 mM HEPES, 10 mM KCl, 0.1 mM EDTA, 0.1 mM EGTA, 2 mM DTT, 1% (v/v) NP-40 and complete protease inhibitor tablets (CPIs, Roche), diluted to manufacturer's instructions. Cell lysates were incubated on ice for 10 min and NP-40 added to a final concentration of 1% (v/v). Lysates were vortexed for 10 secs and centrifuged for 30 secs at 4° C., 12000 g. The supernatants were retained as the cytosolic protein extracts. The pellets were resuspended in buffer containing 10 mM HEPES, 10 mM KCl, 0.1 mM EDTA, 0.1 mM EGTA, 2 mM DTT, 400 mM NaCl, 1% NP-40 (v/v) and CPIs. Samples were shaken vigorously for 15 min in an ice bath. The nuclear protein extracts were obtained in the supernatant following a 5 min centrifugation at 4° C., 12000 g.
Sense and antisense strands (175 nmole/ml each) were incubated in annealing buffer (10 mM Tris-HCl pH7.5, 100 mM NaCl, 1 mM EDTA) for 10 min at 65° C., and allowed to cool at room temperature for 2 h. 3.5 pmole double-stranded oligonucleotides were end-labelled with 0.37 MBq ^32P(γATP) by incubating for 30 min at 37° C. with T4 polynucleotide kinase. Labelled oligonucleotides were recovered by centrifugation at 3000 rpm for 2 min through MicroSpin G-25 or G-50 sephadex columns (Amersham Biosciences).
3-5 μg protein extracts were incubated on ice for 1 h with non-radiolabelled non-specific oligonucleotide (poly(dI-dC) or Oct-1) in a binding buffer (20% (v/V) glycerol, 5 mM MgCl2, 2 mM EDTA, 50 mM Tris-HCl pH7.5, 250 mM NaCl, 2 mM DTT), followed by a 45 min incubation with 0.035 pmole ^32P(γ(ATP)-end labelled oligonucleotide probes:
Oct-1 or SP-1 consensus sequences were used as a controls for a NF-κB-specific effect. The resulting protein/DNA complexes were separated in a 4% acrylamide gel, the gel dried under vacuum at 80° C. and exposed to X-ray film. For supershift analysis, samples were incubated with 2 μg antibodies for 30 min on ice prior to incubation with oligonucleotides. Non-radio-labelled oligonucleotides were used at 100-fold molar excess for specific and non-specific competition for DNA binding. Reagents for EMSA were obtained from Promega Life Sciences, Delta House, Chilworth Research Centre, Southampton SO16 7NS, United Kingdom.

PPAR-γ = biological target: T2, PPAR-γ (Homo sapiens, UniProt P37231); settings: as stated from the literature; cited from earlier work
T2 sequence (P37231 1-505): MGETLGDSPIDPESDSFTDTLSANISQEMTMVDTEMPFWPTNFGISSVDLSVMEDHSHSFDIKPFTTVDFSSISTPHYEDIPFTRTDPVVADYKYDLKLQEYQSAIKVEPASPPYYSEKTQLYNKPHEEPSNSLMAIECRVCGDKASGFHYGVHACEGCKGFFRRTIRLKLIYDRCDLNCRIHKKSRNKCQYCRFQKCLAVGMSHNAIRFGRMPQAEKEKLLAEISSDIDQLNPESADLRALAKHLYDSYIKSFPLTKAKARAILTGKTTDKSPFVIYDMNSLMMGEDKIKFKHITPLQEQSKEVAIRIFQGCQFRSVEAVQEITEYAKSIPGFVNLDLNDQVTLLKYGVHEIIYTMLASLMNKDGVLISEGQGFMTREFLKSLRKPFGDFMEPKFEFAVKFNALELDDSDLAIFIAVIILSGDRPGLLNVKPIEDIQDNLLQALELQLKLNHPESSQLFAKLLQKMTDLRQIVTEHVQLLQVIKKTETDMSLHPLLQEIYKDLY

T1 sequence (Q04206 whole entry): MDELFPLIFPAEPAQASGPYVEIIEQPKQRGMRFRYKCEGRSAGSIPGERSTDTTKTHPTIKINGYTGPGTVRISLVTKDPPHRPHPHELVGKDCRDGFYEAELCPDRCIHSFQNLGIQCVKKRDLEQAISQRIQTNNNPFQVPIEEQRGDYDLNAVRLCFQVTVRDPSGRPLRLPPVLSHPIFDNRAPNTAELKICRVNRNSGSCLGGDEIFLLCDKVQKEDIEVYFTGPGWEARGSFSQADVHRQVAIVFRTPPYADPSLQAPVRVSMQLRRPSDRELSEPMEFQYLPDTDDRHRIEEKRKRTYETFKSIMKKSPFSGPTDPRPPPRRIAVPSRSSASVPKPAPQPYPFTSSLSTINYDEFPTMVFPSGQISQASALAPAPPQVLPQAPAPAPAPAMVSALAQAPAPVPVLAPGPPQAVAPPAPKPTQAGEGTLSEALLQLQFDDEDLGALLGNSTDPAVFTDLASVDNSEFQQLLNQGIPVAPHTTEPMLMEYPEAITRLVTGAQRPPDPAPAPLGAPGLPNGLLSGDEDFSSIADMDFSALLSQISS
T1 sequence (P19838 1-433 limits assumed): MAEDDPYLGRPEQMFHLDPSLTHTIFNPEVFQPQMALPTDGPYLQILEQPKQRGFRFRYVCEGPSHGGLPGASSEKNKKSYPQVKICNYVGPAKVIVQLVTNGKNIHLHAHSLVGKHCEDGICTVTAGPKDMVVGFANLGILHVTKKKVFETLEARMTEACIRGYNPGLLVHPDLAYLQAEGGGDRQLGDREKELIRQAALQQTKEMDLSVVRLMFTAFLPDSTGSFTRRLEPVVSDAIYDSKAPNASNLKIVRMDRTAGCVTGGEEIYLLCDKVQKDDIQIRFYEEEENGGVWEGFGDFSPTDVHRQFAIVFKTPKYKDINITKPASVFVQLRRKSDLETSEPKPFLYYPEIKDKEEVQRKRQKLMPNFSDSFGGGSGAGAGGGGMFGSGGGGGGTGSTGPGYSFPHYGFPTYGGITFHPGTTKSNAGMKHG

SMILES | IL-1β-induced NF-κB DNA binding (EMSA) (NF-κB) | IL-1β-induced NF-κB DNA binding (EMSA) (NF-κB; listed as 15dPGJ2) | PPAR agonist / ligand activity (PPAR-γ)
CCCCCC=CC=C1C(=O)C=C[C@@H]1CC=CCCCC(=O)O [15d-PGJ2, 15-deoxy-Δ^12,14prostaglandin J2] | inhibited IL1-β-induced NF-κB DNA binding in a dose-dependent manner | inhibition | is a PPAR agonist
CCCCC[C@H](O)/C=C/[C@H]1C=CC(=O)[C@@H]1CCCCCCC(=O)O [PGA1, prostaglandin A1] | inhibition |  | does not act as a PPAR ligand
